In US9051265B2, “N-benzylindole modulators of PPARG” (The Scripps Research Institute, priority 2011, dated 2015):

System: PPARG (murine PPARg2 or full-length human PPARg)
Assay: Cell-based PPRE-luciferase transactivation assay in COS-1 cells

## CN(CCOc1ccc(CC2SC(=O)NC2=O)cc1)c1ccccn1 (stereo not shown) [rosiglitazone]
  activation of the PPRE reporter: about 5 fold
